Blank lines part the entries; values can stand above or below the molecule they belong to.
Columns and labels:
H460 cells = test: glycine/nucleoside protection of growth inhibition in H460 cells; assay type: cell-based, human
Experimental: We also tested the protective effects of AICA (320 µM) which is metabolized to AICAR (ZMP) (AICARFTase substrate), thus circumventing the GARFTase step in de novo purine biosynthesis (27) (see FIG. 1). […] Analogous results were obtained with HCT116 and MIA PaCa-2 tumor cells (see FIG. 14).
(§1) For proliferation assays of the HCT116, H460, and MIA PaCa2 tumor cell lines, the cells were plated in 96-well plates in an identical manner to the CHO experiments, except that the maximal drug concentration was increased to 10 µM. Glycine/nucleoside protection experiments in CHO and tumor cell lines were performed in folate- and glycine-free RPMI 1640/10% dialyzed fetal bovine serum supplemented with 25 nM leucovorin without additions, or in the presence of adenosine (60 µM), thymidine (10 µM), glycine (130 µM) and/or 5-aminoimidazole-4-carboxamide (AICA) (320 µM). Growth of metabolite-treated cells was normalized to controls treated with metabolites and vehicle (i.e., DMSO) both singly and in combination. Treatments with all metabolites were performed in parallel on the same plate for a given drug.

SHMT2 = molecular target: T1, SHMT2 (Homo sapiens, UniProt P34897); test: in vitro inhibition of purified SHMT2, coupled SHMT2-MTHFD2 assay with NADH readout; conditions: purified N-terminally His-tagged enzyme; compounds as monoglutamates; * designates one experiment
T1 sequence (P34897 30-504): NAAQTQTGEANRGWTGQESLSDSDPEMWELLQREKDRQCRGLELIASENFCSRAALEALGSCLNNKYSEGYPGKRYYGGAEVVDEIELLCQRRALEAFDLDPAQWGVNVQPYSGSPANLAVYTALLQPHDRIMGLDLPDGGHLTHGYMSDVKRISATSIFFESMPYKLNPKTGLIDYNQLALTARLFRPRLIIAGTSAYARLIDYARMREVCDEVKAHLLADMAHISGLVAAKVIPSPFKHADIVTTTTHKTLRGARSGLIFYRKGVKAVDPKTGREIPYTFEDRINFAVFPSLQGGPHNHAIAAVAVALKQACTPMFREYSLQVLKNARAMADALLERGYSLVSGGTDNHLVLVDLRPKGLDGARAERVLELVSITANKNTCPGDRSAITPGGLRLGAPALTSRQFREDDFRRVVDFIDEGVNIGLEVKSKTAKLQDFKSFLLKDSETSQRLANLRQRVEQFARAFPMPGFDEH

PC43-10 (RFC) (CHO) = test: proliferation assay, PC43-10 CHO cells expressing RFC only; assay type: cell-based, Chinese hamster; conditions: folate-/glycine-free RPMI1640 with 25 nM leucovorin; 96 h; drug 0-1000 nM; read-out: IC50s (SE) PC43-10 (RFC) (CHO)
Experimental: (§2) Proliferation assays were performed with engineered Chinese hamster ovary (CHO) cell lines R2 (transporter-null), PC43-10 (expresses RFC only), RT16 (FRα only), and R2/PCFT4 (PCFT only) cultured in folate-/glycine-free RPMI1640 supplemented with 25 nM leucovorin. Additional results are shown for HCT116 (colon tumor cells (CTC)), IGROV1 (epithelial ovarian cancer (EOC) cells), H460 (non-small cell lung cancer (NSCLC) cells), MIAPaCa-2 (pancreatic cancer (PaC) cells), and HPAC (PaC).
(§3) Cell culture and proliferation/protection assays. The HCT116 cell lines including the serine hydroxymethyltransferase (SHMT) 1, SHMT2, and methylene THF dehydrogenase 2 (MTHFD2) knockout (KO) cells were previously described (47,53). The H460 cell line was obtained from the American Type Culture Collection (Manassas, VA), whereas the MIA PaCa-2 cells were provided by Dr. Yubin Ge (Karmanos Cancer Institute). Cell lines were verified by STR analysis by Genetica DNA Laboratories (Burlington, NC). MTXRIIOua^R2-4 (i.e. R2) Chinese hamster ovary (CHO) cells were generously provided by Dr. Wayne Flintoff (University of Western Ontario) (54). From this parental R2 cell line, human RFC and PCFT were individually transfected to generate the isogenic CHO cell lines designated PC43-10 (RFC) and R2/PCFT4 (PCFT) (55-57). Human tumor cell lines were cultured in folate-free RPMI supplemented with 10% dialyzed fetal bovine serum (Sigma-Aldrich), 1% penicillin/streptomycin solution, 2 mM L-glutamine, and 25 nM leucovorin in a humidified atmosphere at 37° C. in the presence of 5% CO2 and 95% air. The CHO cell lines were cultured in alpha-minimal essential medium (alpha-MEM) supplemented with 10% bovine calf serum, 1% penicillin/streptomycin solution, and 2 mM L-glutamine. Additionally, the transfected CHO cell lines (i.e. R2/PCFT4 and PC43-10) were maintained under continuous selection with 1 mg/ml of G418.
For proliferation assays with the CHO cell lines, the cells were treated with drugs (0-1 µM) in a 96-well plate (2000 cells/well) in glycine-free, nucleoside-free folate-free RPMI supplemented with 10% dialyzed fetal bovine serum, 1% penicillin/streptomycin, 2 mM L-glutamine, and 25 nM leucovorin (final volume 200 µL) over a 96 h incubation period at 37° C. with 5% CO2. […] To quantify viable cells, the media was removed and plates were washed once with 100 µL Dulbecco’s Phosphate-Buffered Saline (PBS), after which 100 µL PBS and 20 µL Cell Titer-blue (Promega) were added. Relative cell numbers were proportional to the fluorescence measured with a fluorescence plate reader (590 nm emission, 560 nm excitation). Background fluorescence (cell-free wells treated with Cell Titer-blue) was subtracted and these corrected values were normalized to results for cells treated in an identical manner without drugs.

RT16 (FR alpha) (CHO) = test: proliferation assay, RT16 CHO cells expressing FR alpha only; assay type: cell-based, Chinese hamster; conditions: folate-/glycine-free RPMI1640 with 25 nM leucovorin; 96 h; read-out: IC50s (SE) RT16 (FR alpha) (CHO)
Experimental: as §2
For proliferation assays with the CHO cell lines, the cells were treated with drugs (0-1 µM) in a 96-well plate (2000 cells/well) in glycine-free, nucleoside-free folate-free RPMI supplemented with 10% dialyzed fetal bovine serum, 1% penicillin/streptomycin, 2 mM L-glutamine, and 25 nM leucovorin (final volume 200 µL) over a 96 h incubation period at 37° C. with 5% CO2. The drugs were dissolved in DMSO; an equivalent amount of DMSO was added to the control (no addition) samples. To quantify viable cells, the media was removed and plates were washed once with 100 µL Dulbecco’s Phosphate-Buffered Saline (PBS), after which 100 µL PBS and 20 µL Cell Titer-blue (Promega) were added. Relative cell numbers were proportional to the fluorescence measured with a fluorescence plate reader (590 nm emission, 560 nm excitation). Background fluorescence (cell-free wells treated with Cell Titer-blue) was subtracted and these corrected values were normalized to results for cells treated in an identical manner without drugs.

IGROV1 (EOC) = test: proliferation assay, IGROV1 epithelial ovarian cancer cells; assay type: cell-based, human; conditions: folate-/glycine-free RPMI1640 with 25 nM leucovorin; read-out: IC50s (SE) IGROV1 (EOC)
Experimental: as §2, §1

MIA PaCa-2 (PaC) = test: proliferation assay, MIA PaCa-2 pancreatic cancer cells; assay type: cell-based, human; conditions: folate-/glycine-free RPMI1640 with 25 nM leucovorin; 96 h; read-out: IC50s (SE) MIA PaCa-2 (PaC)
Experimental: as §2, §3, §1

HPAC (PaC) = test: proliferation assay, HPAC pancreatic cancer cells; assay type: cell-based, human; conditions: folate-/glycine-free RPMI1640 with 25 nM leucovorin; read-out: IC50s (SE) HPAC (PaC)
Experimental: as §2, §1

[1] = system: human MIA PaCa-2 pancreatic adenocarcinoma xenografts; test: in vivo efficacy trial with MIA PaCa-2 pancreatic cancer xenografts; parameters: species or system SCID mice
Experimental: Female ICR SCID mice (10 weeks old; 19 g average body weight) were implanted bilaterally with human MIA PaCa-2 tumors. […] The mice were weighed and tumors were measured with a caliper two-to-three times weekly; mice were sacrificed when the cumulative tumor burden reached 1500 mg. Tumor weights were estimated from two-dimensional measurements, where tumor mass (in mg) = (a x b^2)/2, and a and b are the tumor length and width in mm, respectively. The tumor masses from both tumors on each mouse were added together, and the total mass per mouse was used for calculations of anti-tumor activity. Quantitative end-points include: (i) tumor growth delay [T-C, where T is the median time in days required for the treatment group tumors to reach a predetermined size (e.g., 1000 mg), and C is the median time in days for the control group tumors to reach the same size; tumor-free survivors are excluded from these calculations]; and (ii) T/C (in percent) when treatment (T) and control (C) groups for the control groups reached 700 mg in size (exponential growth phase). The median value of each group was determined (including zeros). Mouse weights were monitored as a gauge of drug toxicity.
Female ICR SCID mice (10 weeks old; 19 g average body weight) were implanted bilaterally with human MIA PaCa-2 PaC tumors.
In vivo efficacy trial with MIA PaCa-2 pancreatic cancer xenografts. Methods for in vivo maintenance of MIA PaCa-2 tumor xenografts and drug efficacy evaluations are analogous to those previously described (58, 62-67). MIA PaCa-2 human pancreatic cancer cells (5 × 10^6 cells/flank) were bilaterally implanted subcutaneously with tumor fragments (30-60 mg) with a 12-gauge trocar in female […] SCID mice (NCI Animal Production Program). The mice were 10 weeks old on day 0 (tumor implant) with an average body weight of 19 g. For the efficacy trial, the mice were maintained on either a folate-deficient diet from Harlan-Teklad (TD.00434) starting 14 days before subcutaneous tumor implant to ensure serum folate levels would approximate those of humans. A separate cohort of mice was fed a folate-replete control diet from Lab Diet (5021). Mice were supplied with food and water ad libitum. Serum folate concentrations were monitored prior to tumor implant and post study by Lactobacillus casei bioassay (68). The mice in each group (folate-deficient and standard diet) were pooled before unselective distribution to the treatment and control groups. […] The drugs were dissolved in 5% ethanol (v/v), 1% Tween-80 (v/v), and 0.5% NaHCO3 and were administered intravenously (0.2 ml/injection). The mice were weighed and tumors were measured with a caliper two-to-three times weekly; mice were sacrificed when the cumulative tumor burden reached 1500 mg. Tumor weights were estimated from two-dimensional measurements, where tumor mass (in mg) = (a × b^2)/2, and a and b are the tumor length and width in mm, respectively. The tumor masses from both tumors on each mouse were added together, and the total mass per mouse was used for calculations of anti-tumor activity. Quantitative end-points include: (i) tumor growth delay [T-C, where T is the median time in days required for the treatment group tumors to reach a predetermined size (e.g., 1000 mg), and C is the median time in days for the control group tumors to reach the same size; tumor-free survivors are excluded from these calculations]; and (ii) T/C (in percent) when treatment (T) and control (C) groups for the control groups reached 700 mg in size (exponential growth phase). The median value of each group was determined (including zeros). Mouse weights were monitored as a gauge of drug toxicity.

[2] = IV, AGF291 Q6dx3 start d3, total 23.5 mg/kg, Gemcitabine Q4dx4 start d3, total 480 mg/kg

Ki SHMT2 (SHMT2): no inhibition
SMILES: Nc1nc2[nH]c(CCCc3ccc(C(=O)N[C@@H](CCC(=O)O)C(=O)O)s3)cc2c(=O)[nH]1 [AGF94, reference compound]
protection from growth inhibition by AICA (H460 cells; AICA 320 µM): completely protective
protection from growth inhibition by adenosine (H460 cells; adenosine 60 µM, up to 10 µM drug): fully protective
protection from growth inhibition by glycine (H460 cells; glycine 130 µM): no effect

IC50 (IGROV1 (EOC)): 229 nM
IC50 (MIA PaCa-2 (PaC)): > 1000 nM
IC50 (HPAC (PaC)): 167 nM
SMILES: Nc1nc2ccn(CCCc3ccc(C(=O)N[C@@H](CCC(=O)O)C(=O)O)c(F)c3)c2c(=O)[nH]1 [AGF359]
IC50 (PC43-10 (RFC) (CHO)): 233 nM
IC50 (RT16 (FR alpha) (CHO)): 525 nM

weight loss (median nadir) ([1]; nadir on day 17 for AGF291, day 6 for GEM, completely reversible after cessation of therapy): 12%
SMILES: Nc1ccn([C@@H]2O[C@H](CO)[C@@H](O)C2(F)F)c(=O)n1 [Gemcitabine, reference compound]
Mean Body Weight Loss (g/mouse) [1, 2]: -2.4 g/mouse
Percent Body Weight Loss [1, 2]: -12.2%
median tumor burden on day 14 ([1]; day 14, control cohort 1321 mg): 255 mg
Median Tumor Burden in mg on d16 (range) ([1]; day 16, IV, AGF291 total 23.5 mg/kg, Gemcitabine total 480 mg/kg): 445 (150-527) mg
Tumor Free on d52 ([1]; day 52, mice tumor free/total): 0/5
Tumor Growth Delay (T-C) ([1]; median T-C to reach 1000 mg, AGF291 total 23.5 mg/kg, Gemcitabine total 480 mg/kg): 7.5 days
Time to 1000 mg in days (range) ([1]; median, IV, AGF291 total 23.5 mg/kg, Gemcitabine total 480 mg/kg): 20 (19-21) days
T/C% ([1]; treated/control median tumor burden, AGF291 7.75 mg/kg/inj Q6dx3, GEM 120 mg/kg/inj every 4 days, start day 3): 26%

— patent US20230091810A1, “FIRST-IN-CLASS OF SHMT2 AND MTHFD2 INHIBITORS AS ANTITUMOR AGENTS” (Duquesne University of the Holy Spirit, priority 2017, published 2023)
